Data on 22 compounds can be found in patent publication US8722683B2, “Benzodioxole piperazine compounds” (Hoffmann LA-Roche Inc., priority 2011, dated 2014).

Assay [1] concerns the target D2 receptor (Homo sapiens (Human), UniProt P14416). Put plainly: Radioligand binding ([3H]-spiperone) to cloned D2 receptor expressed in HEK-293 EBNA cells. The following applies: HEK293 EBNA membranes, 0.7 nM [3H]-spiperone. On the procedure: (§1) HEK293 EBNA cells were transiently transfected with expression plasmids encoding for the human D2 or D3 or for the human 5-HT2A receptor, respectively. The cells were harvested 48 h post-transfection, washed three times with cold PBS and stored at −80° C. prior to use. The pellet was suspended in cold 50 mM Tris-HCl buffer containing 10 mM EDTA (pH 7.4) and was homogenized with a Polytron (Kinematica AG, Basel, Switzerland) for 20-30 sec at 12.000 rpm. After centrifugation at 48.000×g for 30 min at 4° C., the pellet was resuspended in cold 10 mM Tris-HCl buffer containing 0.1 mM EDTA (pH 7.4), homogenized, and centrifuged as above. This pellet was further resuspended in a smaller volume of ice cold 10 mM Tris-HCl buffer containing 0.1 mM EDTA (pH 7.4) and homogenized with a Polytron for 20-30 sec at 12.000 rpm. The protein content of this homogenate was determined with the Bio-Rad (Bradford) Protein Assay (Biorad Laboratories GmbH, München, Germany) according to the instructions of the manufacturer using gamma globulin as the standard. This homogenate was stored at −80° C. in aliquots and thawed immediately prior to use.
(§2) Radioligand Binding Assay
(§3) Aliquots of membrane preparations were thawed at RT, resupended in assay buffer (D2, D3: 50 mM Tris-HCl, 120 mM NaCl, 5 mM MgCl2, 1 mM EDTA, 5 mM KCl, 1.5 mM CaCl2, pH=7.4; 5-HT2A: 50 mM Tris-HCl, 10 mM MgCl2, 1 mM EGTA, pH=7.4), homogenized with a Polytron for 20-30 sec at 12.000 rpm and adjusted to a final concentration of approximately 7.5 μg protein/well (D2, D3) and 15 μg protein/well (5-HT2A), respectively.
The binding affinity (Ki) of the compounds was determined using radioligand binding. […] The nonspecific binding was determined with equally composed reaction mixtures in the presence of 10 μM unlabelled spiperone. Per well 45 μl of Microscint 40 (Perkin Elmer, Schwerzenbach, Switzerland) was added, plates for sealed, shaken for 20 min and counted for 3 min on a Topcount Microplate Scintillation Counter (Canberra Packard SA, Zürich, Switzerland) with quenching correction.
(§4) The CPM value for each duplicate of a concentration of competing compound was averaged (y1), then the % specific binding was calculated according to the equation (((y1−non-specific)/(total binding−non-specific))×100). Graphs were plotted with the % specific binding using XLfit, a curve fitting program that iteratively plots the data using Levenberg-Marquardt algorithm. The single site competition analysis equation used was y=A+((B−A)/(1+((x/C)D))), where y is the % specific binding, A is the minimum y, B is the maximum y, C is the IC50, x is the log 10 of the concentration of the competing compound and D is the slope of the curve (the Hill Coefficient). […] The affinity constant (Ki) was calculated using the Cheng-Prusoff equation Ki=(IC50/1+([L]/Kd), where [L] is the concentration of radioligand and Kd is the dissociation constant of the radioligand at the receptor as determined by the saturation isotherm.

The target in assay [2] is D3 receptor (Homo sapiens (Human), UniProt P35462). Put plainly: Radioligand binding ([3H]-spiperone) to cloned D3 receptor expressed in HEK-293 EBNA cells. The following applies: HEK293 EBNA membranes, 0.5 nM [3H]-spiperone. The protocol:
as §1, §2, §3
The binding affinity (Ki) of the compounds was determined using radioligand binding. […] At the end of the incubation, the reaction mixtures were filtered on to unifilter 96-well white microplates with bonded GF/C filters (Packard BioScience, Zürich, Switzerland; preincubated for 1 h in 0.1% polyethylenimine (PEI) in assay buffer) with a Filtermate 196 harvester (Packard BioScience) and washed 3 times with cold assay buffer. The nonspecific binding was determined with equally composed reaction mixtures in the presence of 10 μM unlabelled spiperone. Per well 45 μl of Microscint 40 (Perkin Elmer, Schwerzenbach, Switzerland) was added, plates for sealed, shaken for 20 min and counted for 3 min on a Topcount Microplate Scintillation Counter (Canberra Packard SA, Zürich, Switzerland) with quenching correction.
as §4

In general, Ki refers to a measure of affinity in units of concentration, obtained from inhibition or displacement.

Sequence of D2 receptor (P14416 whole entry): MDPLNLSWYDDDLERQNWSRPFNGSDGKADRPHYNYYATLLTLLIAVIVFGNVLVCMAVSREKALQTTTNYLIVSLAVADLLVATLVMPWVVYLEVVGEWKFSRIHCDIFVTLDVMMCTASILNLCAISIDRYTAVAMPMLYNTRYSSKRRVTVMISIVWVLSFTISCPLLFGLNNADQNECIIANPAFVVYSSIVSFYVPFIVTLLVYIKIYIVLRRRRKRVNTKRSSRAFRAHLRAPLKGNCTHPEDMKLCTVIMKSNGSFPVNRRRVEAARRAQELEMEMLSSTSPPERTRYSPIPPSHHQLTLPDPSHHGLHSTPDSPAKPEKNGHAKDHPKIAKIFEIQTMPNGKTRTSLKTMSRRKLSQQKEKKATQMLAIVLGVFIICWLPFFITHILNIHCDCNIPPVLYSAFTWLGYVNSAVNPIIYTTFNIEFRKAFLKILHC
Sequence of D3 receptor (P35462 whole entry): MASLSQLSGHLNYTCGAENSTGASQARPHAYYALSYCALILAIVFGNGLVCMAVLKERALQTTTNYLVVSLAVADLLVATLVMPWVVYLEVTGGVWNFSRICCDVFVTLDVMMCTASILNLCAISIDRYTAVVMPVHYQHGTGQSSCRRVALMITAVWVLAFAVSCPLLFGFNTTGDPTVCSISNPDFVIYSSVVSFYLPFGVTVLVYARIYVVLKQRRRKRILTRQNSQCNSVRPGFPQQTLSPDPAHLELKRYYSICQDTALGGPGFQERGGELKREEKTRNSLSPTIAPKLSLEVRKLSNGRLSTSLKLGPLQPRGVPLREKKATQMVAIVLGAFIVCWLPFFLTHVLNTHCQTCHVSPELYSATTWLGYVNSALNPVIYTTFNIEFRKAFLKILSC

Regarding `O=C(N[C@H]1CC[C@H](CCN2CCN(c3cccc4c3OCO4)CC2)CC1)C1COc2ccccc2C1` (stereo partly drawn) [Example 50, Chroman-3-carboxylic acid-trans-N-{4-[2-(4-benzo[1,3]dioxol-4-yl-piperazin-1-yl)-ethyl]-cyclohexyl}-amide], the Ki in assay [1] stood at 572 nM; in assay [2] it was 0.87 nM.
For `O=S(=O)(N[C@H]1CC[C@H](CCN2CCN(c3cccc4c3OCO4)CC2)CC1)N1CCOCC1` [Example 77, Morpholine-4-sulfonic acid-trans-N-{4-[2-(4-benzo[1,3]dioxol-4-yl-piperazin-1-yl)-ethyl]-cyclohexyl}-amide] the same measures were 63 nM and 1.29 nM.
Consider `CC(C)(O)C(=O)N[C@H]1CC[C@H](CCN2CCN(c3cccc4c3OCO4)CC2)CC1` [Example 24, Trans-N-{4-[2-(4-Benzo[1,3]dioxol-4-yl-piperazin-1-yl)-ethyl]-cyclohexyl}-2-hydroxy-2-methyl-propionamide], for which the Ki in assay [1] was 181 nM; in assay [2], 8.8 nM.
For `COC(=O)N[C@H]1CC[C@H](CCN2CCN(c3cccc4c3OCO4)CC2)CC1` [Example 12, Trans-{4-[2-(4-Benzo[1,3]dioxol-4-yl-piperazin-1-yl)-ethyl]-cyclohexyl}-carbamic acid methyl ester] the same measures were 68.5 nM and 1.29 nM.
For `O=C(N[C@H]1CC[C@H](CCN2CCN(c3cccc4c3OCO4)CC2)CC1)C(F)(F)F` [Example 70, N-trans-{4-[2-(4-Benzo[1,3]dioxol-4-yl-piperazin-1-yl)-ethyl]-cyclohexyl}-2,2,2-trifluoro-acetamide] the same measures were 113 nM and 4.91 nM.
On to `CN(C)C(=O)N[C@H]1CC[C@H](CCN2CCN(c3cccc4c3OCO4)CC2)CC1` [Example 72, N-trans-3-{4-[2-(4-Benzo[1,3]dioxol-4-yl-piperazin-1-yl)-ethyl]-cyclohexyl}-1,1-dimethyl-urea], for which the inhibition constant (Ki) in assay [1] was found to be 30.4 nM; in assay [2], 11.2 nM.
For `O=C(CC1(O)CCCCC1)N[C@H]1CC[C@H](CCN2CCN(c3cccc4c3OCO4)CC2)CC1` [Example 15, Trans-N-{4-[2-(4-Benzo[1,3]dioxol-4-yl-piperazin-1-yl)-ethyl]-cyclohexyl}-2-(1-hydroxy-cyclohexyl)-acetamide] the same measures were 160 nM and 3.48 nM.
For `C[C@@H](O)C(=O)N[C@H]1CC[C@H](CCN2CCN(c3cccc4c3OCO4)CC2)CC1` [Example 42, (R)-Trans-N-{4-[2-(4-Benzo[1,3]dioxol-4-yl-piperazin-1-yl)-ethyl]-cyclohexyl}-2-hydroxy-propionamide] the same measures were 89.8 nM and 2.17 nM.
For `O=C(CC1CCOCC1)N[C@H]1CC[C@H](CCN2CCN(c3cccc4c3OCO4)CC2)CC1` [Example 53, N-trans-{4-[2-(4-Benzo[1,3]dioxol-4-yl-piperazin-1-yl)-ethyl]-cyclohexyl}-2-(tetrahydro-pyran-4-yl)-acetamide] the same measures were 139 nM and 2.09 nM.
In assay [1], `O=C(N[C@H]1CC[C@H](CCN2CCN(c3cccc4c3OCO4)CC2)CC1)C1(O)CCC1` [Example 35, 1-Hydroxy-cyclobutanecarboxylic acid-trans-N-{4-[2-(4-benzo[1,3]dioxol-4-yl-piperazin-1-yl)-ethyl]-cyclohexyl}-amide] had an inhibition constant Ki of 84.9 nM.
With `O=C(CO)N[C@H]1CC[C@H](CCN2CCN(c3cccc4c3OCO4)CC2)CC1` [Example 10, Trans-N-{4-[2-(4-Benzo[1,3]dioxol-4-yl-piperazin-1-yl)-ethyl]-cyclohexyl}-2-hydroxy-acetamide], the inhibitory constant (Ki) in assay [1] amounted to 184 nM; in assay [2], 1.69 nM.
As for `O=C(N[C@H]1CC[C@H](CCN2CCN(c3cccc4c3OCO4)CC2)CC1)C1(O)CCCCC1` [Example 37, 1-Hydroxy-cyclohexanecarboxylic acid-trans-N-{4-[2-(4-benzo[1,3]dioxol-4-yl-piperazin-1-yl)-ethyl]-cyclohexyl}-amide], the Ki in assay [1] was found to be 175 nM; in assay [2] it was 15.7 nM.
For `O=C(CC1(O)CCC1)N[C@H]1CC[C@H](CCN2CCN(c3cccc4c3OCO4)CC2)CC1` [Example 28, Trans-N-{4-[2-(4-Benzo[1,3]dioxol-4-yl-piperazin-1-yl)-ethyl]-cyclohexyl}-2-(1-hydroxy-cyclobutyl)-acetamide] the same measures were 94.6 nM and 1.4 nM.
For `O=C(N[C@H]1CC[C@H](CCN2CCN(c3cccc4c3OCO4)CC2)CC1)C1(O)CC1` [Example 29, Trans-1-Hydroxy-cyclopropanecarboxylic acid {4-[2-(4-benzo[1,3]dioxol-4-yl-piperazin-1-yl)-ethyl]-cyclohexyl}-amide] the same measures were 61.5 nM and 1.88 nM.
As for `O=C(CC1CCCO1)N[C@H]1CC[C@H](CCN2CCN(c3cccc4c3OCO4)CC2)CC1` (stereo partly drawn) [Example 6, Trans-N-{4-[2-(4-Benzo[1,3]dioxol-4-yl-piperazin-1-yl)-ethyl]-cyclohexyl}-2-(tetrahydro-furan-2-yl)-acetamide], the inhibition constant Ki in assay [1] was found to be 189 nM; in assay [2] it was 3.1 nM.
For `COC(C)C(=O)N[C@H]1CC[C@H](CCN2CCN(c3cccc4c3OCO4)CC2)CC1` (stereo in doubt) [Example 26, Trans(R)—N-{4-[2-(4-Benzo[1,3]dioxol-4-yl-piperazin-1-yl)-ethyl]-cyclohexyl}-2-methoxy-propionamide] the same measures were 150 nM and 4.9 nM.
In turn, `O=C(C[C@H]1CCCCO1)N[C@H]1CC[C@H](CCN2CCN(c3cccc4c3OCO4)CC2)CC1` (single isomer, unassigned) [Example 31, Trans-N-{4-[2-(4-Benzo[1,3]dioxol-4-yl-piperazin-1-yl)-ethyl]-cyclohexyl}-2-(R) or (S)-tetrahydro-pyran-2-yl-acetamide] displayed a Ki in assay [1] of 310 nM.
The same measure, in the same setting: then `O=C(N[C@H]1CC[C@H](CCN2CCN(c3cccc4c3OCO4)CC2)CC1)C1CCCO1` (stereo partly drawn) [Example 44, Tetrahydro-furan-2-carboxylic acid-trans-N-{4-[2-(4-benzo[1,3]dioxol-4-yl-piperazin-1-yl)-ethyl]-cyclohexyl}-amide], with 117 nM.
`Cn1cnc(S(=O)(=O)N[C@H]2CC[C@H](CCN3CCN(c4cccc5c4OCO5)CC3)CC2)c1` [Example 69, 1-Methyl-1H-imidazole-4-sulfonic acid-trans-N-{4-[2-(4-benzo[1,3]dioxol-4-yl-piperazin-1-yl)-ethyl]-cyclohexyl}-amide] registered a Ki in assay [2] of 2.25 nM.
In assay [1], `O=C(C[C@@H]1CCCCO1)N[C@H]1CC[C@H](CCN2CCN(c3cccc4c3OCO4)CC2)CC1` (single isomer, unassigned) [Example 30, Trans-N-{4-[2-(4-Benzo[1,3]dioxol-4-yl-piperazin-1-yl)-ethyl]-cyclohexyl}-2-(S) or (R)-tetrahydro-pyran-2-yl-acetamide] yielded an inhibition constant (Ki) of 220 nM.
In the case of `O=S(=O)(N[C@H]1CC[C@H](CCN2CCN(c3cccc4c3OCO4)CC2)CC1)c1ccccc1` [Example 67, N-trans-{4-[2-(4-Benzo[1,3]dioxol-4-yl-piperazin-1-yl)-ethyl]-cyclohexyl}-benzenesulfonamide], the Ki in assay [2] was found to be 2.88 nM.
Consider `CO[C@H]1CC[C@H](CC(=O)N[C@H]2CC[C@H](CCN3CCN(c4cccc5c4OCO5)CC3)CC2)CC1` [Example 56, Trans-N-{4-[2-(4-Benzo[1,3]dioxol-4-yl-piperazin-1-yl)-ethyl]-cyclohexyl}-2-(4-methoxy-cyclohexyl)-acetamide], for which the Ki in assay [2] was determined as 3.37 nM.
